Experimental data: PMC12494831, “Discovery of new pyridine 3-carboxylic acid-based pharmacophores as dual anti-inflammatory and anti-hyperglycemic agents” (Scientific Reports, 2025)

Assays:
[1] = MTT cell viability assay; type: cell-based; conditions: mouse, RAW 264.7 macrophage cells, control 100
Protocol: (§1) The toxicity of the molecule was investigated by the MTT cell viability assay employing RAW macrophage cells. For this study, two lead compounds, 2b and 2e, were screened based on the in vitro results. […] (The OD values in Tables S6 and S7)
(§2) The MTT ((3-(4,5-Dimethylthiazol-2-yl)-2,5-Diphenyltetrazolium Bromide)) assay was employed to determine viability for the synthesized potent compounds 2b and 2e; the cell viability results portray the compounds’ cytotoxicity. The assay was conducted on RAW macrophage cells (RAW 264.7) with various dilutions of 2b and 2e (10, 20, 30, 40, and 50 µM). The results were confirmed with a control.

[2] = tested on: RAW macrophage cells (RAW 264.7); assay: MTT cell viability assay; type: cell-based; conditions: RAW macrophage cells
Protocol: as §1, §2

[3] = biological target: T1, α-amylase (EC.3.2.1.1) (Homo sapiens, UniProt P04746); assay: In vitro α-amylase inhibition (starch/DNS, 540 nm); type: biochemical; conditions: for IC50: test concentrations 2-10 µg, read-out: α-Amylase IC50±SD (converted)
T1 sequence (P04746 16-511): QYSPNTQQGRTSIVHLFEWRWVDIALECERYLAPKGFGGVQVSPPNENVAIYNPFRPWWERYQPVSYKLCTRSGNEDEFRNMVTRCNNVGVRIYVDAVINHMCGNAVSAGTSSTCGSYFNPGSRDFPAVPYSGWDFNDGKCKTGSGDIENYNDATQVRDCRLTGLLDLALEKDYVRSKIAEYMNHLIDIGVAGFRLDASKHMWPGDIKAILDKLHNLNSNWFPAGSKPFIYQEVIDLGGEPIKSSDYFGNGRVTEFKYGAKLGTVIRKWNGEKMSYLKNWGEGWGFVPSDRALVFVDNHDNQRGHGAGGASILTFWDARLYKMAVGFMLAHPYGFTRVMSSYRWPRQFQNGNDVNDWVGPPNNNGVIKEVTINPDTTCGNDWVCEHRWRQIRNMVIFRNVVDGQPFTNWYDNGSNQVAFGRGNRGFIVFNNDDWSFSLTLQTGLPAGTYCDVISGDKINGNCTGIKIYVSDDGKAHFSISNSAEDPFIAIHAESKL
Protocol: α-Amylase enzyme and other chemical reagents are used for enzyme inhibitory activity. The characterized compounds are diluted in an analytical grad solvent (DMSO) system at 1 mg/mL solution concentration. The activity reaction of the synthesized analogues on the enzyme was treated at final concentrations of 2 to 10 µg. In the interaction between enzyme and compounds, 10 min incubation was maintained before the inhibitory activity started. The enzyme-receptor inhibition efficiency was calculated and compared with the positive control.
Sodium phosphate buffer 0.2 mM (pH 6.9 with 6 × 10^− 4 M NaCl) in 500 µL enzyme solution (0.5 mg/mL) was taken and incubated with test samples (2–10 µg/mL) at room temperature for 10 min. A starch (1%) solution of 500 µL with phosphate buffer was added to all test inhibitor samples; further, the tubes were incubated for 10 min at 28 °C. The reaction test tubes were incubated for another 5 min in the water bath (100 °C) after the addition of the color reagent dinitro salicylic acid and cooled at room temperature until reached. Finally, 10 mL of distilled water was mixed with each test tube, and the colored mixture was measured at a fixed wavelength of 540 nm. The absorbance without sample solution (blank) and control (buffer and standard drug sample) was measured at 540 nm. The α-amylase inhibition efficiency was validated using the following equation:2 [drawing 2]

[4] = tested on: human RBC; assay: Anti-inflammatory activity: hypotonic solution-induced human RBC hemolysis (560 nm); type: cell-based; conditions: for IC50: induced human RBC hemolysis, read-out: Inflammatory IC50±SD
Protocol: All synthesized compounds are validated in human RBC (blood sample); the blood sample was collected from a healthy volunteer in an EDTA tube. The EDTA tube further proceeded with centrifugation at 3000 rpm for 30 min. A supernatant (which contains plasma and leucocytes) solution was isolated, and the obtained RBC (red blood cells) was further treated with Alsever’s reagent. Alsever’s reagent was prepared as follows: sodium citrate (0.8 g, 2.6 mmol), dextrose (2 g, 11.0 mmol), citric acid (0.050 g, […]), and sodium chloride (0.42 g, 7.0 mmol) were solubilized in 100 mL of distilled water. The above mixture was centrifuged for 30 min at 3000 rpm. Then, colloidal blood cells were separated, carefully transferred, and washed with 0.85% of the isosaline solution; this process continued until a clear solution appeared. Employing coagulated RBC and generated human erythrocyte hemolysis, the anti-inflammatory activity and potential of the synthesized entities were evaluated. The tested compounds are prepared at different concentrations for the inhibition activity of inflammation, along with 100 µL of a purified RBC sample utilized. All characterized samples were followed by adding 5.0 mL of trisodium phosphate (10 mM) and 5.0 mL of sodium chloride (5.0 mM) buffer solutions. After the addition of the above mixtures, the test samples are incubated for 15 min at room temperature with RBC and hypotonic mixtures. After incubation, the mixture was centrifuged at 3000 rpm for 15 min. The final supernatant liquid solution was measured at 560 nm using a UV-visible spectrophotometer.3 [drawing 3]

[5] = DPPH radical scavenging (517 nm); conditions: for IC50: read-out: DPPH IC50±SD
Protocol: (§3) The experimental method principle relies on the degradation of the purple color of the DPPH radical and the blue color reduction of the ABTS cation radical. This is due to consuming the electron or hydrogen radical from the antioxidant (A-H). Both assays were measured at 517 nm and 734 nm, respectively. The distinction of color changes illustrates the potential scavenging activity of the inhibitor molecules in terms of hydrogen-donating proficiency. From this, we can conclude the anti-oxidant efficacy.
Methanolic DPPH solution (0.15 mM) was prepared, and 1.0 mL of DPPH solution was mixed with 3.0 mL of synthesized molecules at different concentrations (20 µM to 100 µM). The mixture was constantly swirled and stored RT for 30 min, followed by absorbance measurement at 517 nm.

[6] = ABTS cation radical scavenging (734 nm); conditions: for IC50: read-out: ABTS IC50±SD
Protocol: as §3
In brief, 7.0 mM ABTS in H2O and 2.5 mM potassium persulfate (1:1) were shaken well to generate ABTS cation radicals and kept in the dark at RT for 15–20 h before it is used for the experiment. After, the radical was mixed with the synthesized molecules at different concentrations (20 µM to 100 µM). The resultant solution was measured for absorbance at 734 nm. Ascorbic acid is the positive control for this experiment.1 [drawing 1]

α-Amylase Inhibition % ([3]; 2 µg)	α-Amylase Inhibition % ([3]; 4 µg)	α-Amylase Inhibition % ([3]; 6 µg)	α-Amylase Inhibition % ([3]; 8 µg)	α-Amylase Inhibition % ([3]; 10 µg)	IC50 [3]	IC50 [5]	SMILES	inhibition at 20 µM [4]	inhibition at 40 µM [4]	inhibition at 60 µM [4]	inhibition at 80 µM [4]	inhibition at 100 µM [4]	IC50 [4]	DPPH Inhibition % ([5]; 20 µM)	DPPH Inhibition % ([5]; 40 µM)	DPPH Inhibition % ([5]; 60 µM)	DPPH Inhibition % ([5]; 80 µM)	DPPH Inhibition % ([5]; 100 µM)	ABTS Inhibition % ([6]; 20 µM)	ABTS Inhibition % ([6]; 40 µM)	also measured
86.09%	77.3%	74.08%	72.76%	56.22%	5.17 µM	52.09 ± 0.15 µM	O=C(NCc1ccc2c(c1)OCO2)c1cccnc1 [Compound 2e, N-(Benzo[1,3]dioxol-5-ylmethyl)nicotinamide]	33.6%	42.8%	43%	48.2%	60%	14.1 ± 0.15 µM	29.2%	47.1%	49.2%	55.8%	59%	23.4%	27.9%	viability at 10 µM ([1]; 10 µM): 89.1%; viability at 20 µM ([1]; 20 µM): 81.7%; viability at 30 µM ([1]; 30 µM): 74.8%; viability at 40 µM ([1]; 40 µM): 65.1%; viability at 50 µM ([1]; 50 µM): 56.4%; Toxicity, outcome of the MTT cell viability assay (in words) [2]: viable for the cell line; ABTS Inhibition % ([6]; 60 µM): 29.3%; ABTS Inhibition % ([6]; 80 µM): 35.4%; ABTS Inhibition % ([6]; 100 µM): 43%; IC50 [6]: 45.63 ± 0.19 µM
74.81%	74.52%	69.98%	69.69%	55.63%	5.06 µM	79.62 ± 0.14 µM	CCOc1ccc2nc(NC(=O)c3cccnc3)sc2c1 [Compound 2k, N-(6-ethoxybenzothiazol-2-yl) nicotinamide]	48.6%	55%	66.8%	74.5%	87.5%	25.86 ± 0.23 µM	8.89%	33.34%	40.65%	49.83%	52.31%	37.6%	41.8%	ABTS Inhibition % ([6]; 60 µM): 46.3%; ABTS Inhibition % ([6]; 80 µM): 47.9%; ABTS Inhibition % ([6]; 100 µM): 55.8%; IC50 [6]: 88.03 ± 0.17 µM
